How the values were obtained:
[1] = test system: Corynebacterium glutamicum ATCC13032; assay: Minimum inhibitory concentration, dilution antimicrobial susceptibility test (NCCLS M7-A4); type: cell-based; conditions: sensitive control strain ATCC13032; MÜLLER-HINTON-Bouillon
Description: (§1) The nutrient medium required for this test, “MÜLLER-HINTON-Bouillon”, was obtained from Merck KgaA (Darmstadt, Germany) and employed in accordance with the manufacturer's instructions. […] The plasmid DNA isolated from Corynebacterium glutamicum LP-6 with the aid of an alkaline lysis method (“NucleoBond Nucleic Acid Purification Kits and Cartridges User Manual (PT3167-1)”, Clonetech Laboratories GmbH, Heidelberg, Germany, 1997 I.B.R.) was then transferred to Corynebacterium glutamicum ATCC13032 by electrotransfer.

[2] = test system: Corynebacterium glutamicum LP-6; conditions: resistant test strain LP-6; MÜLLER-HINTON-Bouillon
Description: as §1

[3] = test system: Corynebacterium glutamicum ATCC13032[pTET3]; assay: Minimum inhibitory concentration, dilution antimicrobial susceptibility test (NCCLS M7-A4); type: cell-based; conditions: transformed strain ATCC13032[pTET3]; MÜLLER-HINTON-Bouillon
Description: as §1

Which results are given for `CN(C)[C@@H]1C(O)=C(C(N)=O)C(=O)[C@@]2(O)C(O)=C3C(=O)c4c(O)cccc4[C@@](C)(O)[C@H]3C[C@@H]12` [Tetracycline, tetracycline]?
Minimum inhibitory concentration [1]: ≦0.75 μg tetracycline per ml; Minimum inhibitory concentration [2]: ≦12 μg tetracycline per ml; Minimum inhibitory concentration [3]: ≦12 μg tetracycline per ml

From US8334126B2, “Coryneform host-vector systems comprising a chromosomal ALR gene which is attenuated or eliminated and methods of using” (priority 2000, dated 2012)
